Measurements as given in EP0189101A2, “Compounds having mucolytic and bronchodilating activity, a process for their preparation and pharmaceutical composition containing them as active principle” (PROTER S.p.A., priority 1985, dated 1986).

Key:
[1] = tested on: cough induced by citric acid; test: anticough activity, cough induced by citric acid; conditions: guinea pig
suspension of 4% mucine = test: in vitro mucolytic activity, viscosity of a 4% mucine suspension; type: biochemical; conditions: 0,00625 M, after hydrolysis with rat serum
From the text: More specifically in the test of "in vitro" mucolytic activity with a suspension of 4% mucine (II Farmaco, ed.prat.33-379, 1978), and the molar concentration being the same (0,00625 M), after hydrolysis with rat serum, the 2-f(theophyllin-7-yl)-methyloxysuccinoylthiSïpropionamido acetic acid caused a reduction of viscosity by 11,2% to take place, which is like that of tiopronin (11,5%) and higher than that of N-acetylcysteine (7,6%).

[2] = tested on: fluid of the respiratory tract; test: mucolytic-expectorant activity, fluorescein elimination in the fluid of the respiratory tract; type: in vivo; conditions: 1 mM/kg/os; in comparison with the controls
[3] = tested on: spasm induced by histamine; test: Konzett-Rossler test, spasm induced by histamine; type: in vivo; conditions: spasm induced by histamine (2 mcg/kg/e.v.); guinea pig
Description: (§1) (0.0276-0.1406), like that of theophylline of 0.0395 mM/kg/e.v. […] (0.0133-0,893) which is definitely and significatively lower than that of theophylline (0.1026 (0.0508-0.2072). The bronchodilating activity of the compounds of formula I is consequently definitely higher than that of theophylline.

[4] = tested on: spasm induced by acetylcholine; test: Konzett-Rossler test, spasm induced by acetylcholine; type: in vivo; conditions: spasm induced by acetylcholine (10 mcg/kg/e.v.); guinea pig
Description: as §1

[5] = tested on: shock induced by histamine; test: antibronchospastic activity, shock induced by histamine; type: in vivo; conditions: 0.25 mM/kg/i.p.; guinea pig; value after treatment
acute toxicity = conditions: in vivo, ip; female mouse

SMILES	reduction of the cough ([1]; 5 mg/kg/i.p.)	reduction of viscosity (suspension of 4% mucine)	increase of the escretion of the colouring compound [2]	ED [3]	ED50 [4]	shock resistance [5]	reduction of the cough ([1]; 100 mg/kg/i.p., in comparison with the controls)	LD50 (acute toxicity)
COc1ccc2c3c1O[C@H]1[C@@H](O)C=C[C@H]4[C@@H](C2)N(C)CC[C@@]341 [codeine phosphate]	87%							
CC(=O)N[C@@H](CS)C(=O)O [N-acetylcysteine]		7,6%						
CC(S)C(=O)NCC(=O)O (centres unmarked) [tiopronin]		11,5%	94%					
Cn1c(=O)c2[nH]cnc2n(C)c1=O [theophylline]				0.1026 (0.0508-0.2072) mM/kg/e.v.	0.0395 mM/kg/e.v.	316.8 ± 27.3 s		
CC(SC(=O)CCC(=O)OCn1cnc2c1c(=O)n(C)c(=O)n2C)C(=O)NCC(=O)O (centres unmarked) [2-[(theophyllin-7-yl)methyloxysuccinoylthio]-propionamido acetic acid]		11,2%	86%	0.0345 mM/kg/e.v.	0.0623 mM/kg/e.v.	291.7 ± 43.2 s	79%	481 mg/kg
